Experimental findings from US20120088688A1, “IN VITRO ASSAY FOR IDENTIFICATION OF ALLERGENIC PROTEINS” (BIOVATOR TECHNOLOGIES AB, priority 2005, published 2012) are described below.

Structures can show the parent of a compound that is named as a salt.

The subject of this experiment is Mono Mac 6 cells. Put plainly: Micro array gene expression profiling (HG_U95Av2 chip) of Mono Mac 6 cells following allergen treatment. It counts as cell-based, human. As to conditions: for Number of up regulated genes: Mono Mac 6 cells. Here is the method: The cell line Mono Mac 6 (AstraZeneca Cell Storage and Retrieval, Alderley Park, UK) was cultivated in RPMI 1640 medium with 10 mM HEPES buffer (Gibco, UK), 2 mM L-glutamine, 9 μg/mL human insulin, 1.0 mM sodium pyruvate, 10% fetal bovine serum, 5.6 μl/mL glucose, 100 U/mL penicillin and 100 μg/ml streptomycin. Fresh medium for cultivation was added or changed frequently (every 2:nd or 3:rd day), maintaining a cell density of viable cells/mL between 0.5×10^6 and 1.0×10^6. The cell line was in suspension/loosely adherent and sub cultures were prepared when needed by scraping. The plates were cultivated in an inclined position at 37° C. and 5% CO2 in a Galaxy R (Lab Rum Klimat Ab, Sweden) incubator
Cells were treated with four different allergens, according to table 2, in duplicate cultures. The test substances were all diluted in double distilled water. The duplicate cultures were treated at different exposure days. All treatments were 6 hours and control cells were left unexposed.
20 individual cultures with 500 000 cells per culture were treated identical for each substance. After 6 h exposure identical treated cells were harvest and pooled into a 50 ml Falcontube, pelleted at 540 g for 5 minutes in 7° C. […] The supernatant was removed and the cells were freeze-dried with liquid nitrogen and thereafter put into −152° C. freezer until further preparation.
Experimental procedures were performed according to Gene Chip®Expression Analysis Technical Manual (rev1, 2001) with minor modifications as described. Total RNA was prepared from frozen cells, according to Qiagen Rneasy Mini kit (Qiagen/WVR, Sweden). 30 μg of total RNA was used for cDNA synthesis and in vitro transcript labeling with biotin was performed according to Enzo BioArray RNA Transcription Labeling Kit (Enzo, U.S.A). cRNA quality was analyzed on a Agilent Bioanalyser 2001 (Agilent Technologies, U.S.A) and the concentration was measured on a Nano Droop (Saveen Werner, Sweden). 15 μg of fragmented cRNA was added to the hybridization-cocktail and hybridized to the HG_U95Av2 chip (Affymetrix, U.S.A) for 16 h at 45° C. The arrays were washed and stained with biotinylated anti streptavidin antibodies according to the EukGE_W2v4 protocol (Affymetrix, U.S.A) in the fluid station (Affymetrix, U.S.A).
Data obtained were analyzed using the MAS 5.0 model base. A detection call was calculated for all probe sets, representing if the transcript of a particular gene was present or absent, all absent genes were excluded from analysis.
To verify outliers and trends in data exploratory analysis was made with principle component analysis (PCA). Statistic analysis was made using student's t-test. It weights the variance in individual groups with the variance in all groups. Student's t-test was used to test for statistical significance compared with control. The p-value obtained describes the probability of statistically finding a false positive probe set. Fold change (fc) represents the quotient between the two compared chip.
The average signal value from all treated groups were compared with control signals.
All probe sets with signal value<50 in all groups were excluded from analysis. […] The remaining probe sets were ranked after fc.

`CC1(C)S[C@@H]2[C@H](NC(=O)Cc3ccccc3)C(=O)N2[C@H]1C(=O)O` [penicillin G, Benzylpenicillin sodium salt]: the “Number of up regulated genes” value reads like this: (cut off fc >2) 4; (cut off fc >4) 1; (cut off fc >6) 0; (cut off fc >10) 0. In addition, the “vs ctrl fc, GPR15” value (gene GPR15) is recorded as 2.2. For the same compound, the “vs ctrl fc, IFITM3” value (gene IFITM3) was determined as 3.3. Also, under “gene XK”, the “vs ctrl fc, XK” value is 2.6. Where the note is “systematic name none, c 33.28 unnamed HERV-H protein mRNA”, the “vs ctrl fc, c 33.28 unnamed HERV-H protein mRNA” value came out at 9.1.
